Measured values taken from patent US10017741B2, “Compositions and methods for obtaining enriched mesenchymal stem cell cultures” (StemCell Technologies Inc., priority 2013, dated 2018).

Columns and labels:
[1] = tested on: CB-derived cultures (CD45+/CD11b+ macrophages, Sca1+ monocytes); experiment: Flow cytometry of CB-derived expansion cultures; format: cell-based, mouse; conditions: CB-derived cultures, 1 μM up to P2
Procedure: (§1) c. Expansion of Human BM and Mouse BM and CB-Derived Cells Assay • 1. […] Cultures were allowed to grow for 10-14 days until adherent cells achieved 70 to 80% confluence. Mouse cultures were maintained under normal (5% CO2) or hypoxic conditions (5% CO2/5% O2) at 37 C in a cell culture incubator. Human cultures were maintained under 5% CO2 at 37 C in a humidified cell culture incubator. • 3. Adherent cells were passaged by releasing cultures from flask. Cultures were washed with 5 mL PBS and then 5 mL of 0.25% trypsin solution ([…] catalogue #07901) was added and the flasks incubated for 10 min at 37 C. To each flask, 5 mL complete medium was added to stop trypsin activity. • 4. Released cells were collected into a tube and centrifuged at 300×g for 5 minutes. • 5. Cells were resuspended in 2 mL of medium and counted using a hemocytometer. • 6. […] P1 cultures were incubated until they reached 70 to 80% confluence. • 8. Passaged cultures can be used at any time from P0 to P10 as needed for different applications.
(§2) d. Flow Cytometry Analysis • 1. Cultures of BM and CB-derived cells were trypsinized for 10 minutes and an equal volume of complete medium was added to cultures to stop trypsin activity • 2. Cell suspension was filtered through a 40 μm strainer, and cells counted using a hemocytometer • 3. Suspension was spun down at 300×g for 5 minutes. • 4. Supernatant was removed and cell pellet resuspended in FACS buffer (PBS with 2% FBS and 1 mM EDTA) • 5. A total of 1×10^5 cells in 300 μL FACS buffer was used for each flow cytometry analysis tube, including unstained, viability, compensation, and isotype controls. • 6. Cell suspensions were stained with fluorophore-labeled antibodies against CD45, CD11b, and Sca1, CD29, and viability dye. • 7. Cell suspensions were analyzed on a flow cytometer using compensation and isotype control to determine laser voltage and gating. • 8. Samples were gated on viable CD45^+ cells and 10,000 events per sample were collected. Alternatively, cells were gated on viable CD45^− cells and out of this gate the proportion of CD29+/Sca1^+ cells obtained.

[2] = tested on: BM-derived cultures (CD45+/CD11b+ macrophages, Sca1+ monocytes); experiment: Flow cytometry of BM-derived expansion cultures; format: cell-based, mouse; conditions: BM-derived cultures, 1 μM up to P2
Procedure: as §1, §2

COc1cc(Oc2ccnc3cc(OC)c(OC)cc23)ccc1NC(=O)NC(C)c1nccs1 (centres unmarked) [KI20227, N-{4-[(6,7-dimethoxy-4-quinolyl)oxy]-2-methoxyphenyl}-N0-[1-(1,3-thiazole-2-yl)ethyl]urea]
CD45+/CD11b+ mature macrophages, of viable cells [1]: < 2% | CD45+/CD11b+ mature macrophages, of viable cells [2]: < 2%
